Activity calls are given as the source filed them. No rule for the calls is given here.
Each molecule was assayed against Influenza A virus M2 proton channel (A/TW/4845/1999 H1N1) (assay: NMR binding screen, influenza A virus M2 proton channel, Kd (AID 1549)). Conditions: M2 protein.

Question: Which Kd does the source give for `O=C1C2C3C=CC(C3)C2C(=O)N1c1ccccn1` (configuration not stated) here?
Answer: > 4 mM (inactive)

Question: For `Cc1occc1C(=O)N1CCN(S(C)(=O)=O)CC1`, which Kd is on record?
Answer: > 4 mM (inactive)

Question: `O=C(O)C1CCN(C(=O)c2cccs2)CC1` was tested. Which Kd did it give?
Answer: > 4 mM (inactive)

Question: For `CCOc1cccc(C(=O)c2ccc(O)c(O)c2O)c1`, which Kd is on record?
Answer: > 4 mM (inactive)

Question: `COc1ccc([C@@H]2CC(=O)c3c(O)cc(O)cc3O2)cc1O` was tested. Which Kd did it give?
Answer: > 4 mM (inactive)

Question: Which Kd does the source give for `CC(=O)c1cc(-c2nc3ccccc3n2C)n(C)c1` here?
Answer: > 4 mM (inactive)

Question: For `CO[C@H]1[C@@H](O)[C@@H](C)O[C@H](O[C@H]2CCC3(C)C4CCC5(C)[C@@H](C6=CC(=O)OC6)CC[C@]5(O)[C@@H]4CC[C@]3(O)C2)[C@@H]1O` (some centres not stated), which Kd is on record?
Answer: > 4 mM (inactive)

Question: For `NC(=O)c1cc(N)ccc1N1CCCCC1`, which Kd is on record?
Answer: > 4 mM (inactive)

Question: `Cc1cccc(CO)n1` was tested. Which Kd did it give?
Answer: > 4 mM (inactive)

Question: For `COC(=O)C[C@H]1C(C)(C)C(=O)[C@@H]2CC3=C(CC[C@]4(C)C3=CC(=O)O[C@H]4c3ccoc3)C1(C)C2=O`, which Kd is on record?
Answer: > 4 mM (inactive)

Question: How did the Kd turn out when `O=C(Nn1cnnc1)c1cc2c(s1)CCCCC2` was run?
Answer: > 4 mM (inactive)

Question: Which Kd does the source give for `Cc1ccc2c(c1)CC[C@H]1CC(=O)CC[C@]21C` here?
Answer: > 4 mM (inactive)

Question: How did the Kd turn out when `O=S1(=O)NC(=NCc2ccco2)c2ccccc21` was run?
Answer: > 4 mM (inactive)

Question: For `O=C(O)c1ccc(N2CCCCC2)cc1`, which Kd is on record?
Answer: > 4 mM (inactive)

Question: For `NC(=O)c1ccc2c(c1)OCO2`, which Kd is on record?
Answer: > 4 mM (inactive)

Question: Which Kd does the source give for `CC(=O)O[C@H]1CC[C@@]2(C)C(=CC(=O)C3C4CCC(C(C)CCCC(C)C)[C@@]4(C)CCC32)C1` (some centres not stated) here?
Answer: > 4 mM (inactive)

Question: Which Kd does the source give for `O=C(NCC1CCCCC1)c1ccco1` here?
Answer: > 4 mM (inactive)

Question: `Fc1cccc(Cl)c1CN1CCCNCC1` was tested. Which Kd did it give?
Answer: > 4 mM (inactive)

Question: How did the Kd turn out when `O=C(Nc1ccon1)c1sc2cc(F)ccc2c1Cl` was run?
Answer: > 4 mM (inactive)

Question: For `CC(O)C(=O)N/N=C/c1ccccc1` (configuration not stated), which Kd is on record?
Answer: > 4 mM (inactive)

Question: With `Cn1c(NCC(=O)O)nc2c1c(=O)[nH]c(=O)n2C` as the molecule, how does the Kd read?
Answer: > 4 mM (inactive)

Question: Which Kd does the source give for `Cc1nnc(SCc2ccon2)n1-c1ccccc1` here?
Answer: > 4 mM (inactive)

Question: `CC(=O)c1ccc(N2C(=O)C(C(C)C)NC2=S)cc1` (configuration not stated) was tested. Which Kd did it give?
Answer: > 4 mM (inactive)

Question: For `CCOc1nc(C)ccc1-c1noc(-c2ccco2)n1`, which Kd is on record?
Answer: > 4 mM (inactive)

Question: Which Kd does the source give for `CNc1ccccc1C(=O)O` here?
Answer: > 4 mM (inactive)

Question: With `Cc1nc2ccc(C(=O)O)cc2nc1C` as the molecule, how does the Kd read?
Answer: > 4 mM (inactive)

Question: For `O=C(c1cc2ccccc2o1)N1CCCCCC1`, which Kd is on record?
Answer: > 4 mM (inactive)

Question: How did the Kd turn out when `COc1ccc(NC(=O)/C=N/O)cc1` was run?
Answer: > 4 mM (inactive)

Question: How did the Kd turn out when `CNc1nc(OC)nc(N2CCOCC2)n1` was run?
Answer: > 4 mM (inactive)

Question: With `CC(C)C(=O)NC(=S)N1CCOCC1` as the molecule, how does the Kd read?
Answer: > 4 mM (inactive)

Question: For `Cc1cc(C(=O)N2CCN(c3ncccn3)CC2)cs1`, which Kd is on record?
Answer: > 4 mM (inactive)

Question: `CCCCCc1c2c(cc(O)c1C(=O)O)OC(=O)c1c(cc(OC)cc1C(=O)CCCC)O2` was tested. Which Kd did it give?
Answer: > 4 mM (inactive)

Question: For `CN(C)c1nc(N2CCOCC2)nc(N2CCOCC2)n1`, which Kd is on record?
Answer: > 4 mM (inactive)

Question: `CC(=O)NC(O)C(=O)c1ccccc1` (configuration not stated) was tested. Which Kd did it give?
Answer: > 4 mM (inactive)

Question: For `COc1nc(N2CCOCC2)nc(N)c1[N+](=O)[O-]`, which Kd is on record?
Answer: > 4 mM (inactive)

Question: For `c1ccc(CCc2nc(-c3cccnc3)no2)cc1`, which Kd is on record?
Answer: > 4 mM (inactive)

Question: Which Kd does the source give for `O=C1CCC(C(=O)NCc2cccnc2)N1` (configuration not stated) here?
Answer: > 4 mM (inactive)

Question: `Cc1nc(-c2cc(CO)no2)cs1` was tested. Which Kd did it give?
Answer: > 4 mM (inactive)

Question: How did the Kd turn out when `Nc1nnc(SCc2ccc(F)cc2Cl)s1` was run?
Answer: > 4 mM (inactive)

Question: How did the Kd turn out when `Cc1ccc(OCC(=O)n2cnnc2N)c(C)c1` was run?
Answer: > 4 mM (inactive)

Question: `CC(=O)Nc1cccc(N(C)S(C)(=O)=O)c1` was tested. Which Kd did it give?
Answer: > 4 mM (inactive)

Question: How did the Kd turn out when `O=C1CSC(=Nc2ccc(F)cc2)N1` was run?
Answer: > 4 mM (inactive)

Question: For `O=c1ccc2cc(O)c(O)cc2o1`, which Kd is on record?
Answer: > 4 mM (inactive)

Question: Which Kd does the source give for `CS(C)=C1C(=O)NC(=O)N(c2ccccc2)C1=O` here?
Answer: > 4 mM (inactive)

Question: How did the Kd turn out when `NC(=O)NC1NC(=O)NC1=O` (configuration not stated) was run?
Answer: > 4 mM (inactive)

Question: `NC1Cc2ccccc2C1` was tested. Which Kd did it give?
Answer: > 4 mM (inactive)

Question: With `COc1ccc(NC(=O)c2ccc[n+]([O-])c2)cc1` as the molecule, how does the Kd read?
Answer: > 4 mM (inactive)

Reference: PubChem BioAssay AID1549 (Sanford-Burnham Center for Chemical Genomics, 2009)
